What follows are molecules tested against baculovirus-expressed ALK (Homo sapiens, UniProt Q9UM73) (assay: ALK Kinase Assay (ELISA/TRF, PLC-γ substrate)). Conditions: read-out: ALK Kinase Inhibition (IC50).
Assay type: biochemical
How it was run: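 Plates coated with GST-PLC-γ substrate (10 µg/mL in TBS), then reaction started with 30 ng/ml baculovirus-expressed ALK, 15 min at 37 °C. Phosphotyrosine detected by Eu-labeled PT66 antibody and time-resolved fluorescence. IC50 from variable-slope sigmoidal fit of percent inhibition versus log concentration.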
Also: 1 µM ATP (Km level).

baculovirus-expressed ALK, sequence (Q9UM73 19-1620): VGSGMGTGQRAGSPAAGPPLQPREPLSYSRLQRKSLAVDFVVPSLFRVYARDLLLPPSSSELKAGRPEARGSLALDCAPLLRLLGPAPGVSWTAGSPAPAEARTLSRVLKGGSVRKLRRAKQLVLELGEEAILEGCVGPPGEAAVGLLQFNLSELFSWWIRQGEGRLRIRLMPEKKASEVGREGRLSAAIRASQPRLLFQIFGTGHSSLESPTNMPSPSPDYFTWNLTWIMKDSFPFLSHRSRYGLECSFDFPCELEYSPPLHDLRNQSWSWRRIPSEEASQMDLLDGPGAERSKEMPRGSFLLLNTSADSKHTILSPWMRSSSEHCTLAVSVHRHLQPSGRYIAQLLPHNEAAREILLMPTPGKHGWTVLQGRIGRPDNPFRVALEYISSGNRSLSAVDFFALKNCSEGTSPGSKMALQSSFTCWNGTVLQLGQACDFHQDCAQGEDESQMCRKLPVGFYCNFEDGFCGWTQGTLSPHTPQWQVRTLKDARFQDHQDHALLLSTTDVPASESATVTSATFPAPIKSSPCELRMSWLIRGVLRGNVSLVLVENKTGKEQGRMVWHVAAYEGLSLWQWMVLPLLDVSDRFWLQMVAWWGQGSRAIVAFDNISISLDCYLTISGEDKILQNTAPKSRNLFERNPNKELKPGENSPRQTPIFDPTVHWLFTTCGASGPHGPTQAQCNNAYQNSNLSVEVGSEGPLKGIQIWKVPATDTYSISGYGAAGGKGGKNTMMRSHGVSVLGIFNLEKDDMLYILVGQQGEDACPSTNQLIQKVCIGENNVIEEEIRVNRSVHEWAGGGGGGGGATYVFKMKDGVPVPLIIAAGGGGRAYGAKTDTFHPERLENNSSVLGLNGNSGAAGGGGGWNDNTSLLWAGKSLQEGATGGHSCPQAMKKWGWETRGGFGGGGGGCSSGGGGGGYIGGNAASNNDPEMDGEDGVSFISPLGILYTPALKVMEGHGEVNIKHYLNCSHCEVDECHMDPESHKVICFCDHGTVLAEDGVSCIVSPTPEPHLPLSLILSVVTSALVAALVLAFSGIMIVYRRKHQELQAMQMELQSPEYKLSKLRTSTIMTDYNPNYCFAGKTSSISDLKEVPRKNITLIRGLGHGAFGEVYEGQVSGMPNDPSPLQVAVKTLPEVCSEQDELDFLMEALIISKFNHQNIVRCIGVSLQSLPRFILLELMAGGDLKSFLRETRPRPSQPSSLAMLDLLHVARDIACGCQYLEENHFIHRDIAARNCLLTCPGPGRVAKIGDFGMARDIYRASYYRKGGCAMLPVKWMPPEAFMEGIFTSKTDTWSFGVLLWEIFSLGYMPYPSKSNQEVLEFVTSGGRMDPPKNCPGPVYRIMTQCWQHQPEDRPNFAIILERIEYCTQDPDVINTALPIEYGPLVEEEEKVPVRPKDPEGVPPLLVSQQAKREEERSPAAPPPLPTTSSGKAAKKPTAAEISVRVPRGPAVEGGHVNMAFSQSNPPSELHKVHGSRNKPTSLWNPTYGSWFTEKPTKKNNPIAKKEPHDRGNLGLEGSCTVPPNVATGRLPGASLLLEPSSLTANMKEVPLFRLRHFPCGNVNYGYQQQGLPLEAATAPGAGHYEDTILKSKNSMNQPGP

Structure (SMILES)	IC50
CCOC(=O)N1CCC(NC(=O)c2ccc(-c3cnc4c(c3)N(Cc3cc(Cl)ccc3C(F)(F)F)CCN4)cc2)CC1 [Example 389, 4-(4-{1-[5-Chloro-2-(trifluoromethyl)benzyl]-1,2,3,4-tetrahydropyrido[2,3-b]pyrazin-7-yl}benzoylamino)piperidine-1-carboxylic acid ethyl ester]	100 to 1000 nM
O=C(c1cccc(-c2cnc3c(c2)N(Cc2cc(Cl)ccc2C(F)(F)F)CCN3)c1)N1CCC(n2c(=O)[nH]c3ccccc32)CC1 [Example 310, 1-[1-(3-{1-[5-Chloro-2-(trifluoromethyl)benzyl]-1,2,3,4-tetrahydropyrido[2,3-b]pyrazin-7-yl}benzoyl)piperidin-4-yl]-1,3-dihydrobenzoimidazol-2-one]	100 to 1000 nM
NS(=O)(=O)c1ccc(CCNC(=O)c2ccc(-c3cnc4c(c3)N(Cc3cc(Cl)ccc3C(F)(F)F)CCN4)cc2)cc1 [Example 405, 4-{1-[5-Chloro-2-(trifluoromethyl)benzyl]-1,2,3,4-tetrahydropyrido[2,3-b]pyrazin-7-yl}-N-[2-(4-sulfamoylphenyl)ethyl]benzamide]	100 to 1000 nM
O=C(NC1CCc2ccccc21)c1ccc(-c2cnc3c(c2)N(Cc2cc(Cl)ccc2C(F)(F)F)CCN3)cc1 (stereo not shown) [Example 410, 4-{1-[5-Chloro-2-(trifluoromethyl)benzyl]-1,2,3,4-tetrahydropyrido[2,3-b]pyrazin-7-yl}-N-indan-1-ylbenzamide]	100 to 1000 nM
O=C(c1cccc(-c2cnc3c(c2)N(Cc2cc(Cl)ccc2C(F)(F)F)CCN3)c1)N1CCN(c2cnccn2)CC1 [Example 339, (3-{1-[5-Chloro-2-(trifluoromethyl)benzyl]-1,2,3,4-tetrahydropyrido[2,3-b]pyrazin-7-yl}phenyl)-(2,3,5,6-tetrahydro-[1,2′]bipyrazinyl-4-yl)methanone]	100 to 1000 nM
O=C(c1ccc(-c2cnc3c(c2)N(Cc2cc(Cl)ccc2C(F)(F)F)CCN3)cc1)N1CCN(c2nccc3occc23)CC1 [Example 386, (4-{1-[5-Chloro-2-(trifluoromethyl)benzyl]-1,2,3,4-tetrahydropyrido[2,3-b]pyrazin-7-yl}phenyl)-(4-furo[3,2-c]pyridin-4-ylpiperazin-1-yl)methanone]	100 to 1000 nM
O=C(c1ccc(-c2cnc3c(c2)N(Cc2cc(Cl)ccc2C(F)(F)F)CCN3)cc1)N1CCC(Cc2ccccc2)CC1 [Example 378, (4-Benzylpiperidin-1-yl)-(4-{1-[5-chloro-2-(trifluoromethyl)benzyl]-1,2,3,4-tetrahydropyrido[2,3-b]pyrazin-7-yl}phenyl)methanone]	1000 to 10000 nM
O=C(c1ccc(-c2cnc3c(c2)N(Cc2cc(Cl)ccc2C(F)(F)F)CCN3)cc1)N1CCN(C(c2ccccc2)c2ccccc2)CC1 [Example 377, (4-Benzhydrylpiperazin-1-yl)-(4-{1-[5-chloro-2-(trifluoromethyl)benzyl]-1,2,3,4-tetrahydropyrido[2,3-b]pyrazin-7-yl}phenyl)methanone]	1000 to 10000 nM
COc1ccc(N2CCN(C(=O)c3ccc(-c4cnc5c(c4)N(Cc4cc(Cl)ccc4C(F)(F)F)CCN5)cc3)CC2)cc1 [Example 411, (4-{1-[5-Chloro-2-(trifluoromethyl)benzyl]-1,2,3,4-tetrahydropyrido[2,3-b]pyrazin-7-yl}phenyl)-[4-(4-methoxyphenyl)piperazin-1-yl]methanone]	100 to 1000 nM
O=C(NC(c1ccccc1)c1ccccc1)c1cccc(-c2cnc3c(c2)N(Cc2cc(Cl)ccc2C(F)(F)F)CCN3)c1 [Example 333, N-Benzhydryl-3-{1-[5-chloro-2-(trifluoromethyl)benzyl]-1,2,3,4-tetrahydropyrido[2,3-b]pyrazin-7-yl}benzamide]	100 to 1000 nM
O=C(NCCOc1ccccc1)c1ccc(-c2cnc3c(c2)N(Cc2cc(Cl)ccc2C(F)(F)F)CCN3)cc1 [Example 420, 4-{1-[5-Chloro-2-(trifluoromethyl)benzyl]-1,2,3,4-tetrahydropyrido[2,3-b]pyrazin-7-yl}-N-(2-phenoxyethyl)benzamide]	100 to 1000 nM
O=C(NCC(c1ccccc1)c1ccccc1)c1ccc(-c2cnc3c(c2)N(Cc2cc(Cl)ccc2C(F)(F)F)CCN3)cc1 [Example 391, 4-{1-[5-Chloro-2-(trifluoromethyl)benzyl]-1,2,3,4-tetrahydropyrido[2,3-b]pyrazin-7-yl}-N-(2,2-diphenylethyl)benzamide]	100 to 1000 nM
O=C(c1ccc(-c2cnc3c(c2)N(Cc2cc(Cl)ccc2C(F)(F)F)CCN3)cc1)N1CCC[C@H]1CN1CCCC1 [Example 430, (4-{1-[5-Chloro-2-(trifluoromethyl)benzyl]-1,2,3,4-tetrahydropyrido[2,3-b]pyrazin-7-yl}phenyl)-((S)-2-pyrrolidin-1-ylmethylpyrrolidin-1-yl)methanone]	< 100 nM
O=C(NC1Cc2ccccc2C1)c1cccc(-c2cnc3c(c2)N(Cc2cc(Cl)ccc2C(F)(F)F)CCN3)c1 [Example 358, 3-{1-[5-Chloro-2-(trifluoromethyl)benzyl]-1,2,3,4-tetrahydropyrido[2,3-b]pyrazin-7-yl}-N-indan-2-ylbenzamide]	100 to 1000 nM
O=C(c1cccc(-c2cnc3c(c2)N(Cc2cc(Cl)ccc2C(F)(F)F)CCN3)c1)N1CCN(c2ccc(Cl)cc2)CC1 [Example 308, [4-(4-Chlorophenyl)-piperazin-1-yl]-(3-{1-[5-Chloro-2-(trifluoromethyl)benzyl]-1,2,3,4-tetrahydropyrido[2,3-b]pyrazin-7-yl}phenyl)methanone]	100 to 1000 nM
O=C(NCc1cccnc1)c1cccc(-c2cnc3c(c2)N(Cc2cc(Cl)ccc2C(F)(F)F)CCN3)c1 [Example 335, 3-{1-[5-Chloro-2-(trifluoromethyl)benzyl]-1,2,3,4-tetrahydropyrido[2,3-b]pyrazin-7-yl}-N-pyridin-3-ylmethylbenzamide]	100 to 1000 nM
COc1cccc(CNC(=O)c2cccc(-c3cnc4c(c3)N(Cc3cc(Cl)ccc3C(F)(F)F)CCN4)c2)c1 [Example 353, 3-{1-[5-Chloro-2-(trifluoromethyl)benzyl]-1,2,3,4-tetrahydropyrido[2,3-b]pyrazin-7-yl}-N-(3-methoxybenzyl)benzamide]	1000 to 10000 nM
O=C(c1ccc(-c2cnc3c(c2)N(Cc2cc(Cl)ccc2C(F)(F)F)CCN3)cc1)N1CCN(Cc2ccc(Cl)cc2)CC1 [Example 383, [4-(4-Chlorobenzyl)piperazin-1-yl]-(4-{1-[5-chloro-2-(trifluoromethyl)benzyl]-1,2,3,4-tetrahydropyrido[2,3-b]pyrazin-7-yl}phenyl)methanone]	100 to 1000 nM
O=C(c1cccc(-c2cnc3c(c2)N(Cc2cc(Cl)ccc2C(F)(F)F)CCN3)c1)N1CCN(C(c2ccccc2)c2ccccc2)CC1 [Example 315, (4-Benzhydrylpiperazin-1-yl)-(3-{1-[5-Chloro-2-(trifluoromethyl)benzyl]-1,2,3,4-tetrahydropyrido[2,3-b]pyrazin-7-yl}phenyl)methanone]	1000 to 10000 nM
O=C(c1cccc(-c2cnc3c(c2)N(Cc2cc(Cl)ccc2C(F)(F)F)CCN3)c1)N1CCN(c2ccccc2)CC1 [Example 306, (3-{1-[5-Chloro-2-(trifluoromethyl)benzyl]-1,2,3,4-tetrahydropyrido[2,3-b]pyrazin-7-yl}phenyl)-(4-phenylpiperazin-1-yl)methanone]	100 to 1000 nM
O=C(NCCc1cccs1)c1ccc(-c2cnc3c(c2)N(Cc2cc(Cl)ccc2C(F)(F)F)CCN3)cc1 [Example 398, 4-{1-[5-Chloro-2-(trifluoromethyl)benzyl]-1,2,3,4-tetrahydropyrido[2,3-b]pyrazin-7-yl}-N-(2-thiophen-2-yl-ethyl)benzamide]	100 to 1000 nM
Cc1cc(N2CCN(C(=O)c3ccc(-c4cnc5c(c4)N(Cc4cc(Cl)ccc4C(F)(F)F)CCN5)cc3)CC2)c2ccccc2n1 [Example 403, (4-{1-[5-Chloro-2-(trifluoromethyl)benzyl]-1,2,3,4-tetrahydropyrido[2,3-b]pyrazin-7-yl}phenyl)-[4-(2-methylquinolin-4-yl)piperazin-1-yl]methanone]	< 100 nM
O=C(NCc1ccccc1)c1cccc(-c2cnc3c(c2)N(Cc2cc(Cl)ccc2C(F)(F)F)CCN3)c1 [Example 356, N-Benzyl-3-{1-[5-Chloro-2-(trifluoromethyl)benzyl]-1,2,3,4-tetrahydropyrido[2,3-b]pyrazin-7-yl}benzamide]	100 to 1000 nM
O=C(c1cccc(-c2cnc3c(c2)N(Cc2cc(Cl)ccc2C(F)(F)F)CCN3)c1)N1CCN(c2ncnc3ccsc23)CC1 [Example 320, (3-{1-[5-Chloro-2-(trifluoromethyl)benzyl]-1,2,3,4-tetrahydropyrido[2,3-b]pyrazin-7-yl}phenyl)-(4-thieno[3,2-d]pyrimidin-4-ylpiperazin-1-yl)methanone]	100 to 1000 nM
O=C(c1ccc(-c2cnc3c(c2)N(Cc2cc(Cl)ccc2C(F)(F)F)CCN3)cc1)N1CCN(c2ccc(Cl)cc2)CC1 [Example 370, [4-(4-Chlorophenyl)piperazin-1-yl]-(4-{1-[5-chloro-2-(trifluoromethyl)benzyl]-1,2,3,4-tetrahydropyrido[2,3-b]pyrazin-7-yl}phenyl)methanone]	100 to 1000 nM
O=C(NCc1ccc(-c2ccccc2)cc1)c1ccc(-c2cnc3c(c2)N(Cc2cc(Cl)ccc2C(F)(F)F)CCN3)cc1 [Example 425, N-Biphenyl-4-ylmethyl-4-{1-[5-Chloro-2-(trifluoromethyl)benzyl]-1,2,3,4-tetrahydropyrido[2,3-b]pyrazin-7-yl}benzamide]	1000 to 10000 nM
COc1ccc(N2CCN(C(=O)c3cccc(-c4cnc5c(c4)N(Cc4cc(Cl)ccc4C(F)(F)F)CCN5)c3)CC2)cc1 [Example 345, (3-{1-[5-Chloro-2-(trifluoromethyl)benzyl]-1,2,3,4-tetrahydropyrido[2,3-b]pyrazin-7-yl}phenyl)-[4-(4-methoxyphenyl)piperazin-1-yl]methanone]	100 to 1000 nM
O=C(NCc1cccc2ccccc12)c1cccc(-c2cnc3c(c2)N(Cc2cc(Cl)ccc2C(F)(F)F)CCN3)c1 [Example 342, 3-{1-[5-Chloro-2-(trifluoromethyl)benzyl]-1,2,3,4-tetrahydropyrido[2,3-b]pyrazin-7-yl}-N-naphthalen-1-ylmethylbenzamide]	100 to 1000 nM

Reference: patent US7601716B2, “Pyridopyrazines and derivatives thereof as ALK and c-Met inhibitors” (Cephalon, Inc., priority 2006, dated 2009)
